Test results: patent publication US10035790B2, “RORγ modulators” (BRISTOL-MYERS SQUIBB COMPANY, priority 2012, dated 2018)

Each compound was assayed against T1, ligand binding domain of human RORγ (A262-S507) (Homo sapiens, UniProt P51449) (assay: General RORγ SPA binding assay (competition with [3H]25-hydroxycholesterol)). Conditions: RORγ SPA binding assay, inhibition of [3H]25-hydroxycholesterol binding; read-out: IC50.
T1 construct: made in house; host or cells: E. coli
T1 sequence (P51449 262-507): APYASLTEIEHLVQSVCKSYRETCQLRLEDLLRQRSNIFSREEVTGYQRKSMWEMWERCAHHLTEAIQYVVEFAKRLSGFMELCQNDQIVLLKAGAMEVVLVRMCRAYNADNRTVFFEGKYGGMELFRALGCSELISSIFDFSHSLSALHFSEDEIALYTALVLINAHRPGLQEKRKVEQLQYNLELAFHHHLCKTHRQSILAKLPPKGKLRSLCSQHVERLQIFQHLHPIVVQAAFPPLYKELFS
Method: Example 2 General RORγ SPA Binding Assay
The binding of potential ligands to RORγ is measured by competition with [^3H]25-hydroxycholesterol using a scintillation proximity assay (SPA) binding assay. The ligand binding domain of human RORγ (A262-S507) with an N-terminal His tag is expressed in E. coli and purified using nickel affinity chromotography. 50 nM RORγ (A262-S507) is incubated with test compound at varying concentrations for 15 min at room temperature in PBS buffer containing 0.5% fatty acid free BSA. […] of [^3H]25-hydroxycholesterol is then added, and the reaction is incubated for 15 min. 4 mg/mL of Ysi Copper HIS-TAG SPA Beads (Perkin Elmer) are added, and the mixture is incubated for 30 min. The reaction is read on a MicroBeta Trilux scintillation plate reader (Perkin Elmer). IC50 values are determined from the percentage inhibition of [^3H]25-hydroxycholesterol binding.

| SMILES | IC50 [µM] |
| --- | --- |
| Cc1ncc(C(=NOc2cccc(F)c2)C(F)(F)F)c(C2CCN(C(=O)Cc3c(F)cccc3F)CC2)n1 (mixture of isomers) [Compound B29, (Z)-2-(2,6-Difluorophenyl)-1-(4-(2-methyl-5-(2,2,2-trifluoro-1-(3-fluorophenoxyimino)ethyl)pyrimidin-4-yl)piperidin-1-yl)ethanone] | 3.72 |
| CSc1ncc(C(C)=NOc2ccnc(C(F)(F)F)c2)c(C2CCN(C(=O)Nc3c(F)cccc3F)CC2)n1 (mixture of isomers) [Compound B52, N-(2,6-Difluorophenyl)-4-{2-(methylthio)-5-[(1E)-N-{[2-(trifluoromethyl)pyridin-4-yl]oxy}ethanimidoyl]pyrimidin-4-yl}piperidine-1-carboxamide] | 0.334 |
| Cc1cc(C)cc(COC(C)(COC[C@H](O)CO)c2cnc(C)nc2C2CCN(C(=O)Cc3c(F)cccc3F)CC2)c1 (mixture of isomers) [Compound E9, 2-(2,6-Difluorophenyl)-1-(4-(5-(1-((R)-2,3-dihydroxypropoxy)-2-(3,5-dimethylbenzyloxy)propan-2-yl)-2-methylpyrimidin-4-yl)piperidin-1-yl)ethanone] | 0.0062 |
| Cc1cc(C)cc(CC=Cc2cnc(C)nc2C2CCN(C(=O)Cc3c(F)cccc3F)CC2)c1 (mixture of isomers) [Compound J1, (E)-2-(2,6-Difluorophenyl)-1-(4-(5-(3-(3,5-dimethylphenyl)prop-1-enyl)-2-methylpyrimidin-4-yl)piperidin-1-yl)ethanone] | 0.046 |
| Cc1cc(C)cc(COC(C)(COC[C@H](O)CO)c2cnc(C)nc2C2CCN(C(=O)Cc3c(F)cccc3F)CC2)c1 (stereo in doubt) [Compound E8, 2-(2,6-Difluorophenyl)-1-(4-(5-(1-(2,3-dihydroxypropoxy)-2-(3,5-dimethylbenzyloxy)propan-2-yl)-2-methylpyrimidin-4-yl)piperidin-1-yl)ethanone] | 0.0041 |
| Cc1cc(C)cc(CNC(=O)c2cnc(C)nc2C2CCN(C(=O)Cc3c(F)cccc3F)CC2)c1 [Compound A1] | 0.0047 |
| Cc1ncc(C(=O)NCc2ccc(Cl)c(Cl)c2)c(C2CCN(C(=O)Cc3c(F)cccc3F)CC2)n1 [Compound A2, N-(3,4-dichlorobenzyl)-4-(1-(2-(2,6-difluorophenyl)acetyl)piperidin-4-yl)-2-methylpyrimidine-5-carboxamide] | 0.0068 |
| Cc1cc(C)cc(CNC(=O)c2cnc(C)nc2C2CCN(C(=O)Cc3c(F)cccc3Cl)CC2)c1 [Compound A3, 4-(1-(2-(2-chloro-6-fluorophenyl)acetyl)piperidin-4-yl)-N-(3,5-dimethylbenzyl)-2-methylpyrimidine-5-carboxamide] | 0.0072 |
| Cc1cc(C)cc(CNC(=O)c2cnc(C)nc2C2CCN(C(=O)Cc3c(F)cccc3C(F)(F)F)CC2)c1 [Compound A4, N-(3,5-dimethylbenzyl)-4-(1-(2-(2-fluoro-6-(trifluoromethyl)phenyl)acetyl)piperidin-4-yl)-2-methylpyrimidine-5-carboxamide] | 0.0078 |
| Cc1cc(C)cc(CNC(=O)c2cnc(C)nc2C2CCN(C(=O)Cc3ccccc3C(F)(F)F)CC2)c1 [Compound A5, N-(3,5-dimethylbenzyl)-2-methyl-4-(1-(2-(2-(trifluoromethyl)phenyl)acetyl)piperidin-4-yl)pyrimidine-5-carboxamide] | 0.0089 |
| O=C(NCc1ccc(Cl)c(Cl)c1)c1cncnc1C1CCN(C(=O)Cc2c(F)cccc2Cl)CC1 [Compound A6, 4-(1-(2-(2-chloro-6-fluorophenyl)acetyl)piperidin-4-yl)-N-(3,4-dichlorobenzyl)pyrimidine-5-carboxamide] | 0.0264 |
| Cc1cc(C)cc(CNC(=O)c2cnc(C)nc2C2CCN(C(=O)Cc3ccccc3Cl)CC2)c1 [Compound A7, 4-(1-(2-(2-chlorophenyl)acetyl)piperidin-4-yl)-N-(3,5-dimethylbenzyl)-2-methylpyrimidine-5-carboxamide] | 0.0281 |
| Cc1cc(C)cc(CNC(=O)c2cnc(C)nc2C2CCN(C(=O)c3c(F)cccc3Cl)CC2)c1 [Compound A8, 4-(1-(2-chloro-6-fluorobenzoyl)piperidin-4-yl)-N-(3,5-dimethylbenzyl)-2-methylpyrimidine-5-carboxamide] | 0.0294 |
| Cc1cc(C)cc(CNC(=O)c2cnc(C)nc2C2CCN(C(=O)Cc3ccccc3OC(F)(F)F)CC2)c1 [Compound A9, N-(3,5-dimethylbenzyl)-2-methyl-4-(1-(2-(2-(trifluoromethoxy)phenyl)acetyl)piperidin-4-yl)pyrimidine-5-carboxamide] | 0.0316 |
| COc1ccccc1CC(=O)N1CCC(c2nc(C)ncc2C(=O)NCc2cc(C)cc(C)c2)CC1 [Compound A10, N-(3,5-dimethylbenzyl)-4-(1-(2-(2-methoxyphenyl)acetyl)piperidin-4-yl)-2-methylpyrimidine-5-carboxamide] | 0.0331 |
| Cc1cc(C)cc(CNC(=O)c2cnc(C)nc2C2CCN(C(=O)Cc3ccccc3C)CC2)c1 [Compound A11, N-(3,5-dimethylbenzyl)-2-methyl-4-(1-(2-(o-tolyl)acetyl)piperidin-4-yl)pyrimidine-5-carboxamide] | 0.049 |
| Cc1cc(C)cc(CNC(=O)c2cnc(C)nc2C2CCN(C(=O)Cc3ccccc3F)CC2)c1 [Compound A12, N-(3,5-dimethylbenzyl)-4-(1-(2-(2-fluorophenyl)acetyl)piperidin-4-yl)-2-methylpyrimidine-5-carboxamide] | 0.05 |
| Cc1ncc(C(=O)NCc2ccc(Cl)c(Cl)c2)c(C2CCN(C(=O)Cc3c(F)ccc(F)c3F)CC2)n1 [Compound A13, N-(3,4-dichlorobenzyl)-2-methyl-4-(1-(2-(2,3,6-trifluorophenyl)acetyl)piperidin-4-yl)pyrimidine-5-carboxamide] | 0.052 |
| Cc1cc(C)cc(CNC(=O)c2cnc(C)nc2C2CCN(C(=O)Cc3cc(F)ccc3F)CC2)c1 [Compound A14, 4-(1-(2-(2,5-difluorophenyl)acetyl)piperidin-4-yl)-N-(3,5-dimethylbenzyl)-2-methylpyrimidine-5-carboxamide] | 0.066 |
| Cc1cc(C)cc(CNC(=O)c2cnc(C)nc2C2CCN(C(=O)Cc3ccccc3[N+](=O)[O-])CC2)c1 [Compound A15, N-(3,5-dimethylbenzyl)-2-methyl-4-(1-(2-(2-nitrophenyl)acetyl)piperidin-4-yl)pyrimidine-5-carboxamide] | 0.07 |
| Cc1cc(C)cc(CNC(=O)c2cnc(C)nc2C2CCN(C(=O)[C@H](C)c3ccccc3)CC2)c1 [Compound A16, (R)-N-(3,5-dimethylbenzyl)-2-methyl-4-(1-(2-phenylpropanoyl)piperidin-4-yl)pyrimidine-5-carboxamide] | 0.089 |
| Cc1cc(C)cc(CNC(=O)c2cnc(C)nc2C2CCN(C(=O)Cc3cccc(F)c3F)CC2)c1 [Compound A18, 4-(1-(2-(2,3-difluorophenyl)acetyl)piperidin-4-yl)-N-(3,5-dimethylbenzyl)-2-methylpyrimidine-5-carboxamide] | 0.124 |
| Cc1cc(C)cc(CNC(=O)c2cnc(C)nc2C2CCN(C(=O)Cc3cccc4ccccc34)CC2)c1 [Compound A19, N-(3,5-dimethylbenzyl)-2-methyl-4-(1-(2-(naphthalen-1-yl)acetyl)piperidin-4-yl)pyrimidine-5-carboxamide] | 0.155 |
| Cc1ncc(C(=O)NCCOc2ccccc2)c(C2CCN(C(=O)Cc3c(F)cccc3F)CC2)n1 [Compound A20, 4-(1-(2-(2,6-difluorophenyl)acetyl)piperidin-4-yl)-2-methyl-N-(2-phenoxyethyl)pyrimidine-5-carboxamide] | 0.158 |
| O=C(NCc1ccc(Cl)c(Cl)c1)c1cnc(C(F)(F)F)nc1C1CCN(C(=O)Cc2c(F)cccc2F)CC1 [Compound A21, N-(3,4-dichlorobenzyl)-4-(1-(2-(2,6-difluorophenyl)acetyl)piperidin-4-yl)-2-(trifluoromethyl)pyrimidine-5-carboxamide] | 0.209 |
| Cc1cc(C)cc(CNC(=O)c2cnc(C)nc2C2CCN(C(=O)Cc3cccc(F)c3)CC2)c1 [Compound A22, N-(3,5-dimethylbenzyl)-4-(1-(2-(3-fluorophenyl)acetyl)piperidin-4-yl)-2-methylpyrimidine-5-carboxamide] | 0.235 |
| Cc1cc(C)cc(CNC(=O)c2cnc(C)nc2C2CCN(C(=O)c3ccccc3F)CC2)c1 [Compound A23, N-(3,5-dimethylbenzyl)-4-(1-(2-fluorobenzoyl)piperidin-4-yl)-2-methylpyrimidine-5-carboxamide] | 0.254 |
| Cc1cc(C)cc(CNC(=O)c2cnc(C)nc2C2CCN(C(=O)c3ccccc3Cl)CC2)c1 [Compound A24, 4-(1-(2-chlorobenzoyl)piperidin-4-yl)-N-(3,5-dimethylbenzyl)-2-methylpyrimidine-5-carboxamide] | 0.215 |
| Cc1cc(C)cc(CNC(=O)c2cnc(C)nc2C2CCN(C(=O)Cc3ccccc3)CC2)c1 [Compound A25, N-(3,5-dimethylbenzyl)-2-methyl-4-(1-(2-phenylacetyl)piperidin-4-yl) pyrimidine-5-carboxamide] | 0.267 |
| Cc1cc(C)cc(CNC(=O)c2cnc(C)nc2C2CCN(C(=O)[C@@H](C)c3ccccc3)CC2)c1 [Compound A26, (S)-N-(3,5-dimethylbenzyl)-2-methyl-4-(1-(2-phenylpropanoyl)piperidin-4-yl)pyrimidine-5-carboxamide] | 0.446 |
